Reference: patent US6461997B1, “Triazole sulfones having herbicidal activity” (Monsanto Technology LLC, priority 1999, dated 2002)

Experiments:
[1] = test system: IPOSS (annual morningglory); test: Pre-plant incorporated (PPI) herbicidal activity, warm season; format: in vivo, Ipomoea spp.; conditions: PPI application
Experimental: (§1) In another set of tests, the pre-plant incorporated (PPI) activity of compounds of this invention was evaluated on the same species as for the pre-emergence tests described above. In the PPI tests the following procedure, designed to simulate PPI application, was used.
(§2) A pre-prepared topsoil mixture (described above) was placed in a pot and compacted to a depth of 1.0 to 1.25 cm from the top of the pot. Seeds of each of several monocotyledonous and dicotyledonous annual plant species were placed on top of the soil. A sufficient quantity of soil to cover the seeds and level fill the pot was weighed into an open container. A known amount of the test compound was dissolved or suspended in an organic solvent and applied by spraying to this cover soil. The cover soil was thoroughly mixed to distribute the test compound throughout the cover soil, and was then applied as a cover layer over the seeds. Untreated soil was used as a cover layer for control pots. After treatment the plants were placed in a greenhouse where they received 0.64 cm of overhead irrigation. All subsequent watering consisted of a light overhead mist and/or subirrigation as needed for germination and growth. Tables 9 and 10 below relate to warm season plant species which were placed after pre-emergence treatment in a greenhouse with a 30/21° C. day/night temperature regime. Tables 11 and 12 below relates to cool season plant species placed after pre-emergence treatment in a greenhouse or growth chamber with an 18/13° C. day/night temperature regime. Only the compounds of Examples 1, 6, 8, 11, 13 and 15-20 were included in PPI tests.
(§3) Approximately 14 days after planting and treating, the plants were observed and herbicidal efficacy recorded as percent inhibition by comparison with untreated plants.

DATST (jimsonweed) = test: Pre-emergence herbicidal activity, warm season; format: in vivo, Datura stramonium; conditions: for Pre-emergence activity (GR80) DATST: GR80 = lowest tested rate (300, 100, 30, 10 g/ha) with 80% or greater inhibition, approx. 14 days after treating, 30/21° C.
In short: (§4)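 Seeds sown in sterilised fertilised topsoil received surface-applied compound in 50:50 acetone/water, typically at 300, 100, 30 and 10 g/ha, then greenhouse-grown at 30/21° C (warm-season species) or 18/13° C (cool-season species). Percent inhibition versus untreated plants was scored at about 14 days, giving GR80; an asterisk marks activity short of 80% at the top rate.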

SETVI (green foxtail) = test: Post-emergence herbicidal activity, cool season; format: in vivo, Setaria viridis; conditions: abraded plants sprayed at 300, 100, 30 and 10 g/ha; about 14 days after treatment
In short: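 Abraded seedling foliage receives a spray of test compound at four rates, 300 to 10 g/ha, in 50:50 acetone/water at 3,100 l/ha. After about 14 days in an 18/13° C. day/night greenhouse, inhibition is scored against abraded untreated controls and expressed as GR80.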

BROTE (downy brome) = test: Pre-emergence herbicidal activity, cool season; format: in vivo, Bromus tectorum; conditions: GR80 = lowest tested rate (300, 100, 30, 10 g/ha) with 80% or greater inhibition; approx. 14 days after treating; 18/13° C.
In short: as §4

[2] = test system: CIRAR (canada thistle (seedling)); test: Pre-plant incorporated (PPI) herbicidal activity, warm season; format: in vivo, Cirsium arvense; conditions: GR80 = lowest tested rate with 80% or greater inhibition, approx. 14 days after treating, 30/21° C.
Experimental: as §1, §2, §3

AVEFA (wild oat) = test: Pre-emergence herbicidal activity, cool season; format: in vivo, Avena fatua; conditions: GR80 = lowest tested rate (300, 100, 30, 10 g/ha) with 80% or greater inhibition; approx. 14 days after treating; 18/13° C.
In short: as §4

[3] = test system: CIRAR (canada thistle (seedling)); test: Pre-emergence herbicidal activity, warm season; format: in vivo, Cirsium arvense; conditions: GR80 = lowest tested rate (300, 100, 30, 10 g/ha) with 80% or greater inhibition; approx. 14 days after treating; 30/21° C.
In short: as §4

CONAR (field bindweed) = test: Pre-plant incorporated (PPI) herbicidal activity, warm season; format: in vivo, Convolvulus arvensis; conditions: GR80 = lowest tested rate with 80% or greater inhibition, approx. 14 days after treating, 30/21° C.
Experimental: as §1, §2, §3

KCHSC (kochia) = test: Pre-emergence herbicidal activity, cool season; format: in vivo, Kochia scoparia; conditions: lowest tested rate with 80% or greater inhibition; rates 300, 100, 30, 10 g/ha; about 14 days
Experimental: Tables 5 to 8 summarize results of tests conducted as described below to determine the pre-emergence herbicidal activity, in the form of a GR80 value, of illustrative compounds of this invention. […] Compounds of the invention were typically applied at rates of 300, 100, 30, and 10 g/ha. Where herbicidal activity was evident but 80% inhibition was not achieved at the highest rate tested, an asterisk (*) is shown in the following tables.
The pre-emergence tests were conducted by the following procedure. Topsoil was sieved to pass through a 1.27 cm screen. Fertilizer was added to the topsoil and the mixture was then sterilized by heating. The topsoil mixture was placed in a pot and compacted to a depth of 1.0 to 1.25 cm from the top of the pot. Seeds of each of several monocotyledonous and dicotyledonous annual plant species were placed on top of the soil. Additional soil was subsequently placed over the seeds to level-fill the pot. A known amount of each test compound dissolved or suspended in an appropriate organic solvent was diluted with a 50:50 mix of acetone and water and applied to the surface of the soil. After treatment the plants were placed in a greenhouse where they received 0.64 cm of overhead irrigation. All subsequent watering consisted of a light overhead mist and/or subirrigation as needed for germination and growth. Tables 5 and 6 below relate to warm season plant species which were placed after pre-emergence treatment in a greenhouse with a 30/21° C. day/night temperature regime. Tables 7 and 8 below relates to cool season plant species placed after pre-emergence treatment in a greenhouse or growth chamber with an 18/13° C. day/night temperature regime.
as §3
The plant species usually regarded as weeds which were utilized in the tests are identified in the tables below according to the following legend, in which “d” indicates a dicotyledonous species and “m” a monocotyledonous species. All monocotyledonous species included in the tests herein are grasses.

POROL (common purslane) = test: Pre-plant incorporated (PPI) herbicidal activity, warm season; format: in vivo, Portulaca oleracea; conditions: GR80 = lowest tested rate with 80% or greater inhibition, approx. 14 days after treating, 30/21° C.
Experimental: as §1, §2, §3

[4] = Ipomoea, 300 g/ha, read-out: Percent inhibition IPOSS
[5] = Ipomoea, 900 g/ha, read-out: Percent inhibition IPOSS

SMILES	Pre-emergence activity (GR80) DATST (DATST (jimsonweed)) [g/ha]	Post-emergence activity GR80, SETVI (SETVI (green foxtail))	Pre-emergence activity (GR80) BROTE (BROTE (downy brome))	PPI activity (GR80) CIRAR [2] [g/ha]	Pre-emergence activity (GR80) AVEFA (AVEFA (wild oat)) [g/ha]	Pre-emergence activity (GR80) CIRAR [3] [g/ha]	PPI activity (GR80) CONAR (CONAR (field bindweed))	Pre-emergence activity GR80, KCHSC (KCHSC (kochia))	PPI activity (GR80) POROL (POROL (common purslane)) [g/ha]	Percent inhibition IPOSS ([1]; 100 g/ha) [%]	Percent inhibition IPOSS ([1]; 300 g/ha) [%]	Percent inhibition IPOSS ([1]; 900 g/ha) [%]	Percent inhibition IPOSS ([1]; 30 g/ha) [%]	other results
CCN(CC)C(=O)n1cnc(S(=O)(=O)C(F)(F)Br)n1 [Example 1, 3-(bromodifluoromethylsulfonyl)-1-(N,N-diethylcarbamoyl)-1,2,4-triazole]	300	[empty]	300 g/ha	100	100	100	100 g/ha	300 g/ha	30	–	–	–	–	inhibition at 10 g/ha ([1]; Ipomoea, 10 g/ha, read-out: Percent inhibition IPOSS): 0%; inhibition at 300 g/ha [1, 4]: 60%; inhibition at 900 g/ha [1, 5]: 80%; inhibition at 10 g/ha (DATST (jimsonweed); Datura stramonium, pre-emergence application, 10 g/ha, read-out: Percent inhibition, weed DATST): 0%; inhibition at 30 g/ha (DATST (jimsonweed); Datura stramonium, pre-emergence application, 30 g/ha, read-out: Percent inhibition, weed DATST): 0%; inhibition at 100 g/ha (DATST (jimsonweed); Datura stramonium, pre-emergence application, 100 g/ha, read-out: Percent inhibition, weed DATST): 0%; inhibition at 300 g/ha (DATST (jimsonweed); Datura stramonium, pre-emergence application, 300 g/ha, read-out: Percent inhibition, weed DATST): 0%; inhibition at 900 g/ha (DATST (jimsonweed); Datura stramonium, pre-emergence application, 900 g/ha, read-out: Percent inhibition, weed DATST): 20%
CCN(CC)C(=O)n1cnc(S(=O)(=O)C(F)(F)F)n1 [Example 2]	300	–	300 g/ha	–	–	300	–	300 g/ha	–	20	100	95	–	–
CCN(CC)C(=O)n1cnc(S(=O)(=O)C(F)(F)Cl)n1 [Example 3]	100	–	* (activity observed, at least at highest rate, but <80% inhibition)	–	–	30	–	300 g/ha	–	50	100	80	0	–
CCN(CC)C(=O)n1cnc(S(=O)(=O)C(F)(F)C(F)(F)Br)n1 [Example 4]	300	–	300 g/ha	–	30	30	–	100 g/ha	–	80	60	100	0	–
CCN(CC)C(=O)n1cnc(S(=O)(=O)C(F)(F)C(=O)c2ccccc2)n1 [Example 6]	–	–	–	100	300	300	* (activity observed, at least at highest rate, but <80% inhibition)	300 g/ha	300	–	–	–	–	–
CCSC(F)(F)S(=O)(=O)c1ncn(C(=O)N(CC)CC)n1 [Example 8, 1-(N,N-diethylcarbamoyl)-3-[difluoro(ethylthio)methylsulfonyl]-1,2,4-triazole]	300	[empty]	* (activity observed, at least at highest rate, but <80% inhibition)	100	300	300	300 g/ha	[empty]	100	–	–	–	–	inhibition at 30 g/ha ([1]; Ipomoea, 30 g/ha, read-out: Percent inhibition IPOSS): 0%; inhibition at 100 g/ha ([1]; Ipomoea, 100 g/ha, read-out: Percent inhibition IPOSS): 70%; inhibition at 300 g/ha [1, 4]: 90%; inhibition at 900 g/ha [1, 5]: 100%
CCN(CC)C(=O)n1cnc(S(=O)(=O)C(F)(F)SC)n1 [Example 9]	300	[empty]	100 g/ha	–	300	100	–	300 g/ha	–	100	40	100	0	–
C=C(CC(F)(F)S(=O)(=O)c1ncn(C(=O)N(CC)CC)n1)C[Si](C)(C)C [Example 20]	–	[empty]	–	100	–	100	* (activity observed, at least at highest rate, but <80% inhibition)	[empty]	100	–	–	–	–	–
